Key:
[1] = Cytotoxicity, inhibition of HEL cell growth; assay type: cell-based, human; conditions: human, human embryonic lung (HEL) cells, CC50, cytotoxic concentration required to reduce HEL cell growth by 50%; 3 days
[2] = system: human embryonic lung (HEL) cells; assay: Cytotoxicity, inhibition of HEL cell growth; assay type: cell-based; conditions: for cytotoxic activity (in words): at 100 μM
[3] = system: human embryonic lung (HEL) cells; conditions: Table 2, concentration that causes a microscopically detectable alteration of morphology
[4] = system: varicella-zoster virus (VZV) TK+ OKA strain; assay: microbe, parasite or virus in culture; assay type: cell-based; conditions: Human alphaherpesvirus 3, HEL, read-out: EC50 TK+ OKA
[5] = system: human cytomegalovirus (HCMV) Davis strain; assay: microbe, parasite or virus in culture; assay type: cell-based; conditions: Human betaherpesvirus 5, HEL, read-out: Antiviral activity EC50 HMCV Davis
[6] = system: varicella zoster virus (VZV); conditions: for antiviral activity (in words): at 100 μM; for anti-VZV activity (in words): HEL cells
[7] = system: HCMV, HSV-1, HSV-2; assay type: cell-based; conditions: HCMV AD-169 and Davis, HSV-1 KOS and TK- KOS ACVr, HSV-2 G; HEL cell cultures
[8] = system: broad variety of RNA viruses, including HIV-1 and HIV-2, feline coronavirus, vesicular stomatitis virus, Coxsackie virus B4, respiratory syncytial virus …; assay type: cell-based
[9] = system: varicella zoster virus (VZV); assay: in vitro; conditions: human
[10] = system: varicella zoster virus (VZV); assay: microbe, parasite or virus in culture; conditions: Human alphaherpesvirus 3, HEL, read-out: EC50 against VZV

| Structure (SMILES) | Cytotoxicity MMC [3] [µM] | anti-VZV activity (in words) [6] | further results |
| --- | --- | --- | --- |
| Nc1nc2c(ncn2COCCO)c(=O)[nH]1 [Acyclovir, acyclovir, reference compound] | >250 |  | CC50 at 3 days [1]: 224000 nM; CC50 ([2]; cytotoxic concentration required to reduce HEL cell growth by 50%, 3 days): 191000 nM |
| O=c1[nH]c(=O)n([C@H]2C[C@H](O)[C@@H](CO)O2)cc1/C=C/Br [Brivudin, brivudin, reference compound] | >250 |  | EC50 [4]: 20 to 30 nM |
| Nc1ccn(C[C@@H](CO)OCP(=O)(O)O)c(=O)n1.O.O [Cidofovir, reference compound] | >250 |  | EC50 [5]: 510 nM |
| CCCn1cc(C(=O)c2ccc(Cl)cc2)c2ccccc21 [Compound 4a] | >100 |  | cytotoxic activity (in words) [2]: do not displayed antiviral or cytotoxic activities; antiviral activity (in words) [6]: do not displayed antiviral or cytotoxic activities |
| CCCn1cc(CN2CCCCC2)c2ccccc21 [Compound 4b] | >100 |  | cytotoxic activity (in words) [2]: do not displayed antiviral or cytotoxic activities; antiviral activity (in words) [6]: do not displayed antiviral or cytotoxic activities |
| CCCn1cc(CNCCc2ccc(-c3ccccc3)cc2)c2ccccc21 [Compound 4c] | 4 |  |  |
| c1ccc(-c2ccc(Cn3cc(CN4CCCCC4)c4ccccc43)cc2)cc1 [Compound 4d] | 20 |  |  |
| CCCn1cc(CN2CCCCC2)c2cc(CNc3ccc(Cl)cc3)ccc21 [Compound 8a] | 20 |  |  |
| CCCn1cc(CNCCc2ccc(-c3ccccc3)cc2)c2cc(CNc3ccc(Cl)cc3)ccc21 [Compound 8b] | 20 |  |  |
| CCCn1cc(CN2CCCCC2)c2cc(NC(=O)c3ccccc3)ccc21 [Compound 8c] | 100 |  |  |
| COC(=O)c1ccc(CNCCc2cn(Cc3ccc(-c4ccccc4)cc3)c3ccccc23)cc1 [Compound 15] | 20 |  |  |
| Cn1cc(CCNCCc2ccc(-c3ccccc3)cc2)c2ccccc21 [Compound 16a] | >4 |  |  |
| CC(=O)N(CCc1ccc(-c2ccccc2)cc1)CCc1cn(C)c2ccccc12 [Compound 17a] | 20 |  | activity against other Herpesviridae (in words) [7]: totally inactive; inhibitory activity against RNA viruses (in words) [8]: totally inactive; selectivity ratio [9]: 10 to 20; EC50 [10]: 1700 to 3600 nM |
| CC(=O)N(CCc1cn(C)c2ccccc12)c1ccc2ccccc2c1 [Compound 17d] |  | complete loss of the antiviral activity |  |
| CC(=O)N(CCc1cn(C)c2ccccc12)c1cccc2ccccc12 [Compound 17e] |  | complete loss of the antiviral activity |  |
| CC(=O)N(CCc1cn(C)c2ccccc12)Cc1ccc2ccccc2c1 [Compound 17f] |  | complete loss of the antiviral activity |  |
| CC(=O)N(CCc1cn(C)c2ccccc12)Cc1cccc2ccccc12 [Compound 17g] |  | complete loss of the antiviral activity |  |
| CC(=O)N(CCc1cn(C)c2ccccc12)Cc1ccc(-c2ccccc2)cc1 [Compound 17h] |  | complete loss of the antiviral activity |  |
| CC(=O)N(CCc1cn(C)c2ccccc12)Cc1ccc(Oc2ccccc2)cc1 [Compound 17i] |  | complete loss of the antiviral activity |  |
| Cn1cc(CCN(CCc2ccc(-c3ccccc3)cc2)C(=O)C2CCCCC2)c2ccccc21 [Compound 18a] |  | annihilation of antiviral activity |  |
| Cn1cc(CCN(CCc2ccc(-c3ccccc3)cc2)C(=O)CCN2CCOCC2)c2ccccc21 [Compound 18c] |  | annihilation of antiviral activity |  |
| Cn1cc(CCN(CCc2ccc(-c3ccccc3)cc2)C(=O)OC(C)(C)C)c2ccccc21 [Compound 18d] |  | annihilation of antiviral activity |  |
